Measured values as given in patent EP1421935A1 (Casini, Angela, priority 2002, dated 2004).
In brackets after ≈: the same amount, converted by molar mass. Marks after values point to notes of the source that are not given here.

Experiments:
hCA II = hCA II (Homo sapiens, UniProt P00918); assay: CA inhibition, esterase method (4-nitrophenylacetate hydrolysis)
Procedure: (§1) Stock solutions of inhibitor (1 mM) are prepared in distilled-deionized water with 10-20% (v/v) DMSO (which is not inhibitory at these concentrations) and dilutions up to 0.01 nM are done thereafter with distilled-deionized water. Inhibitor and enzyme solutions are preincubated together for 10 min at room temperature prior to assay, in order to allow for the formation of the E-I complex.

[1] = chloroform-buffer partition coefficient; assay type: physicochemical; details: pH 7.4 phosphate buffer, B compounds as sodium salts
Procedure: The determination of partition coefficient is performed as follows. Chloroform - buffer partition coefficients are obtained by equilibrating the test compound between chloroform and 0.1-ionic strength pH 7.4 phosphate buffer. The concentration in each phase is determined by UV spectrophotometry or HPLC.

[2] = drug distribution in ocular fluids and tissues after topical administration; assay type: in vivo, albino rabbits; details: mean ± standard deviation (n= 3)
[3] = transcorneal penetration of drugs (in vitro corneal permeability); details: rate constant of transfer across excised rabbit cornea, pH 7.4; for kin x 10^3 (hr^-1) No epithelium: denuded epithelium; for kin x 10^3 (hr^-1) Cornea intact: intact epithelium
Procedure: The determination of transcorneal penetration of drugs is performed as follows. […] Excised rabbit corneas with either intact or denuded epithelium are used in these experiments. The pH is 7.4 and exposed area is 1.2 cm^2. Concentrations of drug of 40 - 2000 µM are placed in the epithelial chamber and samples of fluid are collected from the endothelial chamber at different intervals, up to 4 hr.

hCA I = hCA I (Homo sapiens, UniProt P00915); assay: CA inhibition, esterase method (4-nitrophenylacetate hydrolysis)
Procedure: as §1

bCA IV = target: T1, bCA IV (Bos taurus, UniProt Q95323); assay: as above
T1 sequence (Q95323 19-284): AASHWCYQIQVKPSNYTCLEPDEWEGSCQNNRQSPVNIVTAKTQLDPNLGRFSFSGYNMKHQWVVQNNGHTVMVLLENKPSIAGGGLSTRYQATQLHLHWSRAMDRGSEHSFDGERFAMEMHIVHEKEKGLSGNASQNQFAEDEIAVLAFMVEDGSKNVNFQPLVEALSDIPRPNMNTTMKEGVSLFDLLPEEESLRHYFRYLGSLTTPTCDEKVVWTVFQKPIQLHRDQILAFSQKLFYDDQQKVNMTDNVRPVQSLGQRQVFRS
Procedure: as §1

[4] = solubility in aqueous buffer (UV of saturated solution); details: 25 °C, pH 7.4, aqueous buffer, thermodynamic from solid
Procedure: The determination of solubility in aqueous buffer is performed as follows. […] The UV absorption maximum of each compound is determined (with a Cary 3 spectrophotometer) eventually diluting the solution (with MeOH) as necessary. […] The obtained saturated solution is filtered in order to remove solid compound through a Millipore 0.45 µm filter and scanned by UV at the wavelength of the absorption maximum previously determined. Total solubility is determined by the relationship: C' = A'C/A, where C = concentration of standard solution (mg/mL); A = absorbance of standard solution; A' = absorbance of the saturated solution; C' = concentration of the saturated solution (mg/mL).

[5] = test system: IOP of normotensive rabbits; assay: tonometric measurement of IOP after topical administration; assay type: in vivo, New Zealand albino rabbits; details: for Δ IOP ± SE (mm Hg) 30 min: 30 min after one drop (50 µL) of 2% solution; for Δ IOP ± SE (mm Hg) 30 min / Δ IOP ± SE (mm Hg) 60 min / Δ IOP ± SE (mm Hg) 90 min: topical, IOP control eye - IOP treated eye (N = 3); for Δ IOP ± SE (mm Hg) 60 min: 60 min after one drop (50 µL) of 2% solution; for Δ IOP ± SE (mm Hg) 90 min: 90 min after one drop (50 µL) of 2% solution; for IOP returns to baseline values after ... from administration: topical 2% solution (Fig. 2)
Procedure: Tonometric measurement of IOP are performed as follows.
Adult male New Zealand albino rabbits weighing 3-3.5 kg are used in the experiments. Three animals are used for each inhibitor studied. The experimental procedures conform to the Association for Research in Vision and Ophthalmology Resolution on the use of animals. The rabbits are kept in individual cages with food and water provided ad libitum and maintained on a 12 h light/dark cycle in a temperature controlled room, at 22-26 °C. Solutions and suspensions of inhibitors (2 %, by weight, as hydrochlorides, or sodium carboxylates) are made in distilled deionized water. The pH of these solutions is in the range of 5.5 - 7.4.
IOP is measured using a Digilab 30R pneumatonometer (BioRad, Cambridge, MA, USA) as described by Maren et al. (Maren et al., Exp. Eye Res. 55:73-79, 1992; Brechue et al., Invest. Ophthalmol. Vis. Sci. 34:2581-2587,1993). The pressure readings are matched with two-point standard pressure measurements at least twice each day using a Digilab Calibration verifier. All IOP measurements are done by the same investigator with the same tonometer. One drop of 0.2 % oxybuprocaine hydrochloride (novesine, Sandoz) diluted 1:1 with saline is instilled in each eye immediately before each set of pressure measurements. IOP is measured three times at each time interval, and the means reported. IOP is measured first immediately before drug administration, then at 30 min after the instillation of the pharmacological agent, and then each 30 minutes for a period of 4-6 hours. For all IOP experiments drug is administered to only one eye, leaving the contralateral eye as an untreated control. The ocular hypotensive activity is expressed as the average difference in IOP between the treated and control eye, in this way minimizing the diurnal, seasonal and inter-individual variations commonly observed in the rabbit (Id.). All data are expressed as mean ± SE. Ocular hypertension is elicited in the right eye of albino rabbits by the injection of α-chymotrypsin (from Sigma) as described by Sugrue et al. (Sugrue et al., Br. J. Pharmacol. 99:59-64, 1990). The IOP of operated animals is checked after approximately four weeks, and animals with an elevated pressure of 30-36 mm Hg are used at least one month after the injection of α-chymotrypsin.
In vivo IOP lowering experiments are done in normotensive and glaucomatous rabbits, with many of the new compounds reported here, due to their strong CA II and CA IV inhibitory properties, such as B7, B10-B13, B15, B18-B22, B25, B27, B28, B33, B37, and A40. […] Measurements are at 30, 60 and 90 min after administration Table 3.

[6] = 1h after corneal application of one drop (50 µL) of 2% solution
[7] = 2h after corneal application of one drop (50 µL) of 2% solution

Sequence of hCA I (P00915 whole entry): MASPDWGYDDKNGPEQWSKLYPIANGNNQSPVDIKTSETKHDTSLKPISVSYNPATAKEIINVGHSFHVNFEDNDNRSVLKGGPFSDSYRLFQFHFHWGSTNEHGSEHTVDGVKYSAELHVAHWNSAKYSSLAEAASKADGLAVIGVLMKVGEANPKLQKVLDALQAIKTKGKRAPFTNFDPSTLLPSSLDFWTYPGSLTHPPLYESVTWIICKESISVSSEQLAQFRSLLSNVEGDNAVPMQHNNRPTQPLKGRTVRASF

Compound	Ki (hCA II)	Log P [1]	kin x 10^3 (hr^-1) No epithelium [3]	kin x 10^3 (hr^-1) Cornea intact [3]	Ki (hCA I)	Ki (bCA IV)	solubility ([4]; phosphate buffer)	further results
NS(=O)(=O)c1ccc(CNC(=S)Nc2ccc(C(=O)O)cc2)cc1 [B13]	9 nM	1.428	9.1 hr^-1	3.3 hr^-1	47 nM	21 nM	46 mM (≈ 16.8 mg/mL)	Drug concentration (µM) Aqueous humor [2, 6]: 204 ± 13 µM; Drug concentration (µM) Ciliary process [2, 6]: 50 ± 7 µM; Drug concentration (µM) Cornea [2, 6]: 123 ± 9 µM; Drug concentration (µM) Aqueous humor [2, 7]: 62 ± 4 µM; Drug concentration (µM) Ciliary process [2, 7]: 23 ± 2 µM; Drug concentration (µM) Cornea [2, 7]: 76 ± 5 µM; Δ IOP ± SE (mm Hg) 30 min [5]: 1.2±0.15 mm Hg; Δ IOP ± SE (mm Hg) 60 min [5]: 7.0±0.15 mm Hg; Δ IOP ± SE (mm Hg) 90 min [5]: 10.3±0.20 mm Hg
NS(=O)(=O)c1ccc(CNC(=S)NCCC(=O)NC(Cc2cnc[nH]2)C(=O)O)cc1 (stereo not shown) [B40]	4 nM	0.933	5.9 hr^-1	2.8 hr^-1	22 nM	9 nM	–	solubility at 3 h [4]: 57 mM (≈ 25.9 mg/mL)
NC(=O)CC(NC(=S)NCc1ccc(S(N)(=O)=O)cc1)C(=O)O (stereo not shown) [B28]	5 nM	–	–	–	22 nM	9 nM	–	IOP returns to baseline values after ... from administration [5]: 5 to 6 h
NS(=O)(=O)c1ccc(CNC(=S)Nc2cccc(C(=O)O)c2)cc1 [B12]	10 nM	1.313	8.7 hr^-1	3.0 hr^-1	38 nM	29 nM	40 mM (≈ 14.6 mg/mL)	–
CCOc1ccc2nc(S(N)(=O)=O)sc2c1 [Ethoxzolamide, ethoxzolamide, reference compound]	–	1.40	–	–	–	–	–	solubility at 3 h ([4]; phosphate buffer): 0.04 mM (≈ 0.0103 mg/mL)
CC(=O)/N=c1/sc(S(N)(=O)=O)nn1C [Methazolamide, methazolamide, reference compound]	–	0.06	13 hr^-1	1.90 hr^-1	–	–	–	–
NS(=O)(=O)c1ccc(CNC(=S)NC(C(=O)O)C(O)c2ccccc2)cc1 (stereo not shown) [B20]	1 nM	2.518	10.7 hr^-1	4.9 hr^-1	20 nM	7 nM	51 mM (≈ 20.9 mg/mL)	Drug concentration (µM) Aqueous humor [2, 6]: 205 ± 12 µM; Drug concentration (µM) Ciliary process [2, 6]: 49 ± 5 µM; Drug concentration (µM) Cornea [2, 6]: 133 ± 10 µM; Drug concentration (µM) Aqueous humor [2, 7]: 53 ± 5 µM; Drug concentration (µM) Ciliary process [2, 7]: 15 ± 1 µM; Drug concentration (µM) Cornea [2, 7]: 70 ± 9 µM; IOP returns to baseline values after ... from administration [5]: 5 to 6 h
NS(=O)(=O)c1ccc(CNC(=S)NC(C(=O)O)c2ccccc2)cc1 (stereo not shown) [B18]	5 nM	3.721	12.0 hr^-1	5.6 hr^-1	40 nM	12 nM	59 mM (≈ 22.4 mg/mL)	–
NS(=O)(=O)c1ccc(CNC(=S)NC(CO)C(=O)O)cc1 (stereo not shown) [B19]	2 nM	1.662	8.5 hr^-1	3.3 hr^-1	23 nM	9 nM	70 mM (≈ 23.3 mg/mL)	IOP returns to baseline values after ... from administration [5]: 5 to 6 h
NS(=O)(=O)c1ccc(CNC(=S)NC(CS)C(=O)O)cc1 (stereo not shown) [B22]	3 nM	0.124	0.9 hr^-1	0.4 hr^-1	21 nM	8 nM	65 mM (≈ 22.7 mg/mL)	–
NS(=O)(=O)c1ccc(CNC(=S)Nc2ccccc2C(=O)O)cc1 [B11]	11 nM	1.238	8.3 hr^-1	2.9 hr^-1	54 nM	23 nM	41 mM (≈ 15 mg/mL)	–
CCN[C@H]1C[C@H](C)S(=O)(=O)c2sc(S(N)(=O)=O)cc21 [Dorzolamide, dorzolamide, reference compound]	–	2.0^e	5.2 hr^-1	3.0 hr^-1	–	–	–	solubility at 3 h ([4]; phosphate buffer): 60 mM (≈ 19.5 mg/mL); Δ IOP ± SE (mm Hg) 30 min [5]: 2.2±0.15 mm Hg; Δ IOP ± SE (mm Hg) 30 min ([5]; listed as dorzolamide): 2.2 mm Hg; Δ IOP ± SE (mm Hg) 60 min [5]: 4.1±0.15 mm Hg; Δ IOP ± SE (mm Hg) 60 min ([5]; listed as dorzolamide): 4.1 mm Hg; Δ IOP ± SE (mm Hg) 90 min [5]: 2.7±0.10 mm Hg
